Laboratory results reported in US6984649B1, “Pyridine derivatives” (Bayer Aktiengesellschaft, priority 2000, dated 2006).
Structures can show the parent of a compound that is named as a salt.

Test system: A549 human lung epithelium cell line
Assay: RANTES production in response to TNF-α from A549 cells
Assay type: cell-based
Conditions: Homo sapiens, A549, A549 cells, 100 ng/ml TNF-α, read-out: Cellular activity grade (A549) (Cellular IC50)
Method in brief: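 Cells (4×10^4/well) in D-MEM/10% FCS preincubated 1 h at 37 °C with compound in 1% DMSO, then stimulated with 100 ng/ml TNF-α for 24 h. Supernatant RANTES quantified by Eu-labelled sandwich immunoassay (time-resolved fluorescence, ex 340/em 615 nm) against recombinant human RANTES standard.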

Row | IC50 [nM] | Structure (SMILES)
1 | < 1000 | N#Cc1c(C2CCCNC2)cc(-c2c(O)cccc2OCC2CCCO2)nc1N (stereo not drawn) [Example 2-80]
2 | 1000 to 10000 | N#Cc1c(C2CCCNC2)cc(-c2c(O)cccc2OCc2ccccc2Cl)nc1N (stereo not drawn) [Example 2-17]
3 | 1000 to 10000 | N#Cc1c(C2CCCNC2)cc(-c2c(O)cccc2OCc2cccc(C(F)(F)F)c2)nc1N (stereo not drawn) [Example 2-09]
4 | 1000 to 10000 | N#Cc1c(C2CCCNC2)cc(-c2c(O)cccc2OCc2cccc(Br)c2)nc1N (stereo not drawn) [Example 2-11]
5 | < 1000 | NC(=O)C1Cc2c(C3CCNCC3)cc(-c3c(O)cccc3OCC3CC3)nc2NC1=O (stereo not drawn) [Example 26-2, 7-[2-(cyclopropylmethoxy)-6-hydroxyphenyl]-2-oxo-5-(4-piperidinyl)-1,2,3,4-tetrahydro-1,8-naphthyridine-3-carboxamide hydrochloride]

More lines, now with the values behind:

Row | Structure (SMILES) | IC50 [nM]
6 | N#Cc1c(C2CCC(C(=O)O)CC2)cc(-c2ccccc2O)nc1N (stereo not drawn) [Example 1-38] | 1000 to 10000
7 | N#Cc1c(C2CCCC(N)C2)cc(-c2ccccc2O)nc1N (stereo not drawn) [Example 1-23] | < 1000
8 | N#Cc1c([C@@H](N)Cc2ccc(F)cc2)cc(-c2ccccc2O)nc1N [Example 1-30] | 1000 to 10000
9 | N#Cc1c(C2CCCNC2)cc(-c2cccc(Cl)c2O)nc1N (stereo not drawn) [Example 1-20] | < 1000
